Assay results reported in PubChem BioAssay AID1963841 (Molecular Pharmacology Branch, DTP, NCI, 2024).

System: 439559-082-T-J2-PDC spheroid viability
Experiment: Anticancer human tumor 439559-082-T-J2-PDC patient-derived colon adenocarcinoma cell line growth inhibition [POLQ]
Details: spheroids with HUVEC and MSC; for IC50: curve of first compound; for viability, T/C: stronger effect = lower value
Procedure: Multicellular complex tumor spheroid response to Polymerase (POL) inhibitors (novobiocin, ART-558, RP6685) in combination with a variety of drugs and investigational agents in selected tumor cell lines
The POL inhibitors (novobiocin, ART-558, and RP6685) were evaluated both individually and in combination with standard of care and investigational anticancer small molecules within a complex spheroid model of solid tumors. . Complex spheroids include a stromal component modeled by human endothelial cells (HUVEC) and fibroblasts modeled by human mesenchymal stem cells (MSCs). The concentration ranges selected for each drug and investigational agent were based upon clinically achievable concentrations if the clinical Cmax of the agent was known.
Compounds. The drugs and investigational agents: novobiocin (NSC847541), ART-558 (NSC835418), RP-6685 (NSC848927), peposertib (NSC802822), ceralasertib (NSC780249), elimusertib (NSC800525), camonsertib (NSC841442), AZD-1390 (NSC803789), olaparib (NSC753686), talazoparib (NSC767125), rucaparib (NSC756644), sotorasib (NSC818433), MRTX-1133 (NSC836407), SN-38 (NSC673596), topotecan (NSC609699), epotoside (NSC141540), doxorubicin (NSC123127), gemcitabine (NSC613327), 5-fluorouracil (NSC19893), paclitaxel (NSC125973), vemurafenib (NSC761431), MSA-2 (NSC828583), SN-011 (NSC837082), adavosertib (NSC754352), prexasertib (NSC758257), carboplatin (NSC241240) and oxaliplatin (NSC266046), were obtained from the National Cancer Institute (NCI) Developmental Therapeutics Program Chemical Repository (21). The FDA-approved anticancer drug set is available from the Developmental Therapeutics Program at https://dtp.cancer.gov/organization/dscb/obtaining/. […] The stock solutions were prepared in dimethyl sulfoxide (DMSO, Sigma-Aldrich, St. Louis, MO, cat. D2650), except for the platinum compounds which were prepared in saline (Quality Biological, Gaithersburg, MD, cat. 114-055-101), at 800-fold the tested concentration and stored at -70 degrees C prior to their use. All drugs and investigational agents were tested over a range starting from a high concentration at or near the clinical Cmax and decreasing in half-log increments. If the clinical Cmax for an agent had not been determined, the highest concentration tested was 10 microM, except for SN-38, which was tested at a high concentration of 1 microM.
Cell Culture. All cells were maintained in an incubator at 37 degrees C and 5% CO2 with 95% humidity. The PDC lines were cultured according to standard operating procedures established by the NCI PDMR (https://pdmr.cancer.gov). Table 3 of the manuscript, lists the cell lines along with the number of the three cell types plated to form the mct-spheroids and media for tumor cell growth. After thawing, all PDC lines, except 997537-175-T-J1-PDC and 415267-285-R-J2-PDC, were cultured in Matrigel-coated flasks prepared with a working solution of 1X Ham's F-12 nutrient mix, without supplementation (Thermo Fisher Scientific, cat. 11765054), 100 U/mL penicillin-streptomycin (Thermo Fisher Scientific, cat. 15140122), and 2.5% Matrigel (Corning Inc., Corning, NY, cat. 354248) for the first three passages. The two PDC lines 997537-175-T-J1-PDC and 415267-285-R-J2-PDC were cultured on uncoated flasks. The 857933-349-R-J2-PDC line was cultured in 6C/Colon 1B media containing advanced DMEM/F-12 (Thermo Fisher Scientific, cat. 12634028), 10 mM HEPES (Thermo Fisher Scientific, cat. 15630080), 1X GlutaMAX supplement (Thermo Fisher Scientific, cat. 35050061), 0.1 mg/mL primocin (InvivoGen, San Diego, CA, cat. ant-pm-2), 10% defined fetal bovine serum, heat inactivated (HyClone Laboratories Inc., Logan, UT, cat. SH30070.03HI), 50% L-WRN conditioned media (ATCC, cat. CRL-3276), 1.25 mM N-Acetyl-L-cysteine (Sigma-Aldrich, cat. A9165), 10 mM nicotinamide (Sigma-Aldrich, cat. N0636), 1X B-27 supplement (Thermo Fisher Scientific, cat. 17504044), 1X N-2 supplement (Thermo Fisher Scientific, cat. […]
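Note: spheroids exposed to compounds for seven days before readout.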
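Throughout, for viability, T/C: 100% = DMSO vehicle control viability.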

## O=c1[nH]cc(F)c(=O)[nH]1 + Nc1ccc(C#CCN(C(=O)Cc2ncc(C(F)(F)F)cc2C(F)(F)F)c2ccc(F)cc2)nn1
Second compound 0.0316 µM
  IC50: > 10 µM
Second compound 0.1 µM
  IC50: > 10 µM
Second compound 0.316 µM
  IC50: > 10 µM
Second compound 1 µM
  IC50: > 10 µM
Second compound 3.16 µM
  IC50: > 10 µM
Second compound 10 µM
  IC50: > 10 µM
Second compound 0.0316 µM, first compound 0.0316 µM
  viability, T/C: 105%
Second compound 0.0316 µM, first compound 0.1 µM
  viability, T/C: 112%
Second compound 0.0316 µM, first compound 0.316 µM
  viability, T/C: 101%
Second compound 0.0316 µM, first compound 1 µM
  viability, T/C: 98%
Second compound 0.0316 µM, first compound 3.16 µM
  viability, T/C: 90.2%
Second compound 0.0316 µM, first compound 10 µM
  viability, T/C: 87.5%
Second compound 0.1 µM, first compound 0.0316 µM
  viability, T/C: 115%
Second compound 0.1 µM, first compound 0.1 µM
  viability, T/C: 97.4%
Second compound 0.1 µM, first compound 0.316 µM
  viability, T/C: 91.4%
Second compound 0.1 µM, first compound 1 µM
  viability, T/C: 92%
Second compound 0.1 µM, first compound 3.16 µM
  viability, T/C: 86.5%
Second compound 0.1 µM, first compound 10 µM
  viability, T/C: 82.5%
Second compound 0.316 µM, first compound 0.0316 µM
  viability, T/C: 116%
Second compound 0.316 µM, first compound 0.1 µM
  viability, T/C: 104%
Second compound 0.316 µM, first compound 0.316 µM
  viability, T/C: 105%
Second compound 0.316 µM, first compound 1 µM
  viability, T/C: 95.9%
Second compound 0.316 µM, first compound 3.16 µM
  viability, T/C: 83.1%
Second compound 0.316 µM, first compound 10 µM
  viability, T/C: 85.3%
Second compound 1 µM, first compound 0.0316 µM
  viability, T/C: 104%
Second compound 1 µM, first compound 0.1 µM
  viability, T/C: 94.8%
Second compound 1 µM, first compound 0.316 µM
  viability, T/C: 101%
Second compound 1 µM, first compound 1 µM
  viability, T/C: 81.9%
Second compound 1 µM, first compound 3.16 µM
  viability, T/C: 84.5%
Second compound 1 µM, first compound 10 µM
  viability, T/C: 81.4%
Second compound 3.16 µM, first compound 0.0316 µM
  viability, T/C: 103%
Second compound 3.16 µM, first compound 0.1 µM
  viability, T/C: 99.9%
Second compound 3.16 µM, first compound 0.316 µM
  viability, T/C: 84.2%
Second compound 3.16 µM, first compound 1 µM
  viability, T/C: 85.5%
Second compound 3.16 µM, first compound 3.16 µM
  viability, T/C: 86.6%
Second compound 3.16 µM, first compound 10 µM
  viability, T/C: 80.5%
Second compound 10 µM, first compound 0.0316 µM
  viability, T/C: 109%
Second compound 10 µM, first compound 0.1 µM
  viability, T/C: 91.3%
Second compound 10 µM, first compound 0.316 µM
  viability, T/C: 102%
Second compound 10 µM, first compound 1 µM
  viability, T/C: 83.4%
Second compound 10 µM, first compound 3.16 µM
  viability, T/C: 87.9%
Second compound 10 µM, first compound 10 µM
  viability, T/C: 78.7%
